19 compounds from EP2342182B1 (H. Lundbeck A/S, priority 2008, dated 2010) can be followed below.

Test [1] concerns the target T1, human NK3 receptor (Homo sapiens, UniProt P29371).
T1 construct: expressed in transfected cells; membranes prepared from them
T1 sequence (P29371 1-465): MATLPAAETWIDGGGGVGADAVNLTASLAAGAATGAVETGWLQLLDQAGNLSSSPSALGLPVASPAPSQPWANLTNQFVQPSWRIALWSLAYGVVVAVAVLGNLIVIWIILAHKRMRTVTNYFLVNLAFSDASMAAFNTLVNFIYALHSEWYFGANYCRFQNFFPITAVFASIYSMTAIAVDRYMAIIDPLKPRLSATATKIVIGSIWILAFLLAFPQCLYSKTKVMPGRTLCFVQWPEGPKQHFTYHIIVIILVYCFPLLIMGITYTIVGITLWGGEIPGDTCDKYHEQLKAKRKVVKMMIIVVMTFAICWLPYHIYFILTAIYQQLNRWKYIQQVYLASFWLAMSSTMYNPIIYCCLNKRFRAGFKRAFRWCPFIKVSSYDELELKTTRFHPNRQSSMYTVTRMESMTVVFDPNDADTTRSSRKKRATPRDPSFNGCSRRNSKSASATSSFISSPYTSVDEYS
Kind of test: NK3 receptor binding assay (SPA-based competition binding with 125I-NKB). Also: competition with app 0.02 nM 125I-NKB. The conditions noted are these: read-out: Affinity (Ki/nM). The protocol:
Example 12 NK3 receptor binding assay
Membranepreparation: BHK cells stably expressing the human NK3 receptor were seeded in harvesting plates in Dulbeccos MEM containing GlutaMax (862 mg/l), 1mM sodium pyruvate, 10% fetal calf serum, 1% Pen/Strep, 1 mg/ml G418 and were grown at 34 °C in a humidified atmosphere containing 10% CO2. To increase receptor expression, 10 µM trichotatin A was added to the media 24 hours before harvest of the cells at a confluency of app 90%. Prior to the harvesting, the cells were washed twice with PBS without Mg^2+ og Ca^2+ and subsequently scrapped of in 10 ml PBS pr harvesting plate. The cells suspension were centrifuged at 1500xG in three minutes before resuspension in 15 mM Tris-HCl pH 7,5 buffer containing 2 mM MgCl2; 0,3 mM EDTA and 1 mM EGTA (buffer A). The cell suspention was homogenised and subsequently centrifuged at 40000xG in 30 minutes. The membrane-pellet was resuspended in buffer A containing 250 mM sucrose, alliquoted and stored at ― 80 °C.
Affinity assay description: The assay was performed as a SPA-based competition-binding assay in a 50 mM Tris pH 7.4 assay buffer containing 120 mM NaCl, 3 mM MnCl2, 40 µg/ml bacitracin, 2 µg/ml Chymostatin, 1 µg/ml Phosphoramidon and 4 µg/ml Leupeptin. […] The assay plate was subsequently under agitation incubated for 90 min at RT. The plate was centrifugated 10 minutes at 500xG and counted in a topcounter 5 minuttes pr well.
The total binding, which comprised less than 5 % of added radioligand, was defined using assay buffer whereas the non-specific binding was defined in the presence of 1 µM osanetant. The non-specific binding constituted app 5 % of the total binding.

The target of test [2] is T1, human NK3 receptor. Kind of test: NK3 receptor efficacy and potency assay (FLIPR Calcium 4). The test is classed as cell-based. To be noted: read-out: Potency (cIC50/nM). How it is done: Example 13 NK3 receptor efficacy and potency assay
BHK cells stably expressing the human NK3 receptor were seeded in 100 µl media in black walled clear-base 96-wells plates (Costar) aiming at a confluency of 95-100% at the day of assay. The assay was performed according to the FLIPR Calcium 4 Assay kit (Molecular Devices). At the day of the assay, the media was removed and the cells were washed once with the HBSS buffer (Hanks BSS buffer, pH 7,4 containing 20 mM Hepes) before 100 µl of a solution of the calcium assay reagent dissolved in the HBSS buffer containing 2,5 mM probinicid was added to the cells. The plates were incubated for 60 min at 34°C, 10% CO2 before use in the FLIPR for examination of fluorescence.
For efficacy and potency evaluation of compounds, these were diluted in HBSS buffer prior to test. For test of agonist activity, 25 µl of the diluted compound solution was added and the plate was analyzed for 5 minutes in the FLIPR. For test of antagonist activity, the plate was incubated for another 45 minutes before addition of 25 µl of the EC85 concentration ofNKB (app. 4 nM) as described above. The plates were subsequently analyzed for 5 minutes before the assay was terminated. The maximal increase in fluorescence over background following each ligand addition was determined.

`CC[C@H](NC(=O)c1c(C)n(C2CCCC2)c(=O)c2ccccc12)c1ccccc1` [Example 1a, 2-Cyclopentyl-3-methyl-1-oxo-1,2-dihydro-isoquinoline-4-carboxylic acid ((S)-1-phenylpropyl)-amide]: on human NK3 receptor [1], the Ki turned out to be 310 nM. In addition, the IC50 at human NK3 receptor [2] amounted to 570 nM.

`CC[C@H](NC(=O)c1c(C)n(CCSC)c(=O)c2ccccc12)c1ccccc1` [Example 1q, 3-Methyl-2-(2-methylsulfanyl-ethyl)-1-oxo-1,2-dihydro-isoquinoline-4-carboxylic acid ((S)-1-phenyl-propyl)-amide]: the Ki at human NK3 receptor [1] stood at 200 nM. For the same compound, the IC50 on human NK3 receptor [2] came out at 440 nM.

Turning to `CC[C@H](NC(=O)c1c(C)n(NCC(C)C)c(=O)c2ccccc12)c1ccccc1` [Example 2d, 2-Isobutylamino-3-methyl-1-oxo-1,2-dihydro-isoquinoline-4-carboxylic acid ((S)-1-phenyl-propyl)-amide], at human NK3 receptor [1], the Ki is 46 nM. The IC50 at human NK3 receptor [2] was determined as 230 nM. The matching figures for `CC[C@H](NC(=O)c1c(C)n(NCC(C)(C)C)c(=O)c2ccccc12)c1ccccc1` [Example 2e, 2-(2,2-Dimethyl-propylamino)-3-methyl-1-oxo-1,2-dihydro-isoquinoline-4-carboxylic acid ((S)-1-phenyl-propyl)-amide]: 180 nM and 580 nM. As to `Cc1c(C(=O)N[C@H](c2ccccc2)C2CC2)c2cccc(F)c2c(=O)n1NCC(C)C` [Example 2j, 8-Fluoro-2-isobutylamino-3-methyl-1-oxo-1,2-dihydro-isoquinoline-4-carboxylic acid ((S)-cyclopropyl-phenyl-methyl)-amide], the Ki at human NK3 receptor [1] came out at 23 nM.

With `CCNn1c(C)c(C(=O)N[C@H](c2cccc(F)c2)C2CC2)c2cccc(F)c2c1=O` [Example 2p, 2-Ethylamino-8-fluoro-3-methyl-1-oxo-1,2-dihydro-isoquinoline-4-carboxylic acid [(S)-cyclopropyl-(3-fluoro-phenyl)-methyl]-amide], the Ki at human NK3 receptor [1] was determined as 12 nM. Besides, on human NK3 receptor [2], the IC50 worked out at 27 nM.

Turning to `CCCNn1c(C)c(C(=O)N[C@H](c2cccc(F)c2)C2CC2)c2cccc(F)c2c1=O` [Example 2q, 8-Fluoro-3-methyl-1-oxo-2-propylamino-1,2-dihydro-isoquinoline-4-carboxylic acid [(S)-cyclopropyl-(3-fluoro-phenyl)-methyl]-amide], the Ki on human NK3 receptor [1] came to 7.4 nM. As for `CCNn1c(CN2CCCC2=O)c(C(=O)N[C@H](c2cccc(F)c2)C2CC2)c2cccc(F)c2c1=O` [Example 2r, 2-Ethylamino-8-fluoro-1-oxo-3-(2-oxo-pyrrolidin-1-ylmethyl)-1,2-dihydro-isoquinoline-4-carboxylic acid [(S)-cyclopropyl-(3-fluoro-phenyl)-methyl]-amide], the Ki on human NK3 receptor [1] was 6.8 nM. For the compound `COCCn1c(C)c(C(=O)N[C@H](c2cccc(F)c2)C2CC2)c2cccc(F)c2c1=O` [Example 4f, 8-Fluoro-2-(2-methoxy-ethyl)-3-methyl-1-oxo-1,2-dihydro-isoquinoline-4-carboxylic acid [(S)-cyclopropyl-(3-fluoro-phenyl)-methyl]-amide], the Ki on human NK3 receptor [1] is 76 nM. For the same compound, the IC50 on human NK3 receptor [2] came out at 230 nM. Consider `O=C(N[C@H](c1cccc(F)c1)C1CC1)c1c(CN2CCCC2=O)n(CCC(F)(F)F)c(=O)c2c(F)cccc12` [Example 4l, 8-Fluoro-1-oxo-3-(2-oxo-pyrrolidin-1-ylmethyl)-2-(3,3,3-trifluoro-propyl)-1,2-dihydro-isoquinoline-4-carboxylic acid [(S)-cyclopropyl-(3-fluoro-phenyl)-methyl]-amide], for which the Ki on human NK3 receptor [1] came out at 9.3 nM. The IC50 at human NK3 receptor [2] is 10 nM.

With `Cc1c(C(=O)N[C@H](c2cccc(F)c2)C2CCC2)c2cccc(F)c2c(=O)n1CCO` [Example 4p, 8-Fluoro-2-(2-hydroxy-ethyl)-3-methyl-1-oxo-1,2-dihydro-isoquinoline-4-carboxylic acid [(S)-cyclobutyl-(3-fluoro-phenyl)-methyl]-amide], the Ki on human NK3 receptor [1] was determined as 160 nM. Further, the IC50 on human NK3 receptor [2] is 380 nM. Turning to `Cc1c(C(=O)NC(c2cccc(F)c2)C2CCC2)c2cccc(F)c2c(=O)n1C1CCOC1` [Example 4r, 8-Fluoro-3-methyl-1-oxo-2-(S)-tetrahydro-furan-3-yl-1,2-dihydro-isoquinoline-4-carboxylic acid [(S)-cyclobutyl-(3-fluoro-phenyl)-methyl]-amide], the IC50 at human NK3 receptor [2] was found to be 390 nM. Take `CCOn1c(C)c(C(=O)N[C@H](c2cccc(F)c2)C2CCC2)c2cccc(F)c2c1=O` [Example 4t, 2-Ethoxy-8-fluoro-3-methyl-1-oxo-1,2-dihydro-isoquinoline-4-carboxylic acid [(S)-cyclobutyl-(3-fluoro-phenyl)-methyl]-amide]: the Ki on human NK3 receptor [1] was found to be 68 nM. Besides, the IC50 on human NK3 receptor [2] is 180 nM. In the case of `Cc1c(C(=O)N[C@H](c2cccc(F)c2)C2CCC2)c2cccc(F)c2c(=O)n1C[C@H]1CCCN1` [Example 5d, 8-Fluoro-3-methyl-1-oxo-2-(R)-1pyrrolidin-2-ylmethyl-1,2-dihydro-isoquinoline-4-carboxylic acid [(S)-cyclobutyl-(3-fluoro-phenyl)-methyl]-amide], the Ki on human NK3 receptor [1] came out at 25 nM. For the same compound, the IC50 at human NK3 receptor [2] was determined as 16 nM. Turning to `Cc1c(C(=O)N[C@H](c2cccc(F)c2)C2CC2)c2cccc(F)c2c(=O)n1[C@@H]1CCNC1` [Example 5g, 8-Fluoro-3-methyl-1-oxo-2-(R)-1-pyrrolidin-3-yl-1,2-dihydro-isoquinoline-4-carboxylic acid [(S)-cyclopropyl-(3-fluoro-phenyl)-methyl]-amide], the IC50 at human NK3 receptor [2] turned out to be 910 nM. On to `CCCn1c(CN2CCNCC2)c(C(=O)N[C@H](c2cccc(F)c2)C2CC2)c2cccc(F)c2c1=O` [Example 6a, 8-Fluoro-1-oxo-3-piperazin-1-ylmethyl-2-propyl-1,2-dihydro-isoquinoline-4-carboxylic acid [(S)-cyclopropyl-(3-fluoro-phenyl)-methyl]-amide], for which the Ki on human NK3 receptor [1] came to 13 nM. Also, the IC50 on human NK3 receptor [2] was determined as 7 nM. Turning to `CCCn1c(CN2CCNCC2)c(C(=O)N[C@H](c2cccc(F)c2)C2CCC2)c2cccc(F)c2c1=O` [Example 6b, 8-Fluoro-1-oxo-3-piperazin-1-ylmethyl-2-propyl-1,2-dhydro-isoquinoline-4-carboxylic acid [(S)-cyclobutyl-(3-fluoro-phenyl)-methyl]-amide], the Ki at human NK3 receptor [1] came out at 6.6 nM. In addition, on human NK3 receptor [2], the IC50 was 18 nM.

With `CCCn1c(CN2CCCC2=O)c(C(=O)N[C@H](c2cccc(F)c2)C2CC2)c2cccc(F)c2c1=O` [Example 6e, 8-Fluoro-1-oxo-3-(2-oxo-pyrrolidin-1-ylmethyl)-2-propyl-1,2-dihydro-isoquinoline-4-carboxylic acid [(S)-cyclopropyl-(3-fluoro-phenyl)-methyl]-amide], the Ki on human NK3 receptor [1] was determined as 9.8 nM. The IC50 at human NK3 receptor [2] amounted to 21 nM. The matching figures for `Cc1c(C(=O)N[C@H](c2cccc(F)c2)C2CC2)c2cccc(F)c2c(=O)n1C[C@@H]1CCCN1C` [Example 7a, 8-Fluoro-3-methyl-2-((S)-1-methyl-pyrrolidin-2-ylmethyl)-1-oxo-1,2-dihydro-isoquinoline-4-carboxylic acid [(S)-cyclopropyl-(3-fluoro-phenyl)-methyl]-amide]: 78 nM and 130 nM.
